Data as given in patent publication US20260053931A1, “MDM2 TARGETING PROTACS” (THE WISTAR INSTITUTE OF ANATOMY AND BIOLOGY, priority 2023, published 2026).

Experiments:
[1] = test system: non-cancerous cells; assay: Western blot and MTT assay, non-cancerous cells
[2] = test system: MDA-MB-436 mammospheres; assay: Area of formed mammospheres, MDA-MB-436; assay type: cell-based, human; conditions: MDA-MB-436, 3-fold lower concentration than the MDM2 inhibitors, 72 hr
Description: FIGS. 21A-21E show the apoptosis induction of p53-inactivated TNBC cells in 2D and 3D cultures by the MDM2-PROTAC YX-02-030. A-B. Colony formation assays (A. Triplicate, 12 days) and mammosphere formation (B. Triplicate 72 hrs) of MDA-MB-231 and MDA-MB-436 cells in the presence of the indicated compounds or DMSO control (−); representative pictures shown. C-E. Formed mammospheres of MDA-MB-231 and MDA-MB-436 cells were treated with the compounds indicated or DMSO control (−), and area (C. n=10 mammospheres, relative to pre-treatment area, 72 hr), real-time imaging (IncuCyte) and quantification of Caspase-3/7 activity (D. n=4-5 wells/compound), and survival/ATP assays (E. Quadruplicate, 72 hr) were performed; representative images shown; scale bar 300 m. Mean±SEM (A-C and E). For A, *P<0.0001 and **P<0.0001, comparing 1 M and 2 M PROTAC, respectively, to control compounds and DMSO vehicle control. For B, *P<0.0046, **P<0.0001, and ***P<0.0001, comparing 0.5 M, 1 M, and 2 M PROTAC, respectively, to control compounds and DMSO vehicle control. For C, *P<0.0001 and **P<0.0001, comparing 2 M and 4 M/6 M PROTAC, respectively, to control compounds and DMSO vehicle control. […]
These were then evaluated in 3D culture as to when the YX-02-030 was effective at preventing TNBC cell mammosphere formation and eliminating already formed mammospheres. […]

[3] = test system: OVCAR3; assay: Cell death of other cancer cell lines: OVCAR3; assay type: cell-based; conditions: Homo sapiens, OVCAR-3; OVCAR3, Ovarian
Description: The PROTACs prepared herein were tested for their use in other cancer cell lines to determine activity in multiple different types of cancer.

CCOc1cc(C(C)(C)C)ccc1C1=N[C@](C)(c2ccc(Cl)cc2)[C@](C)(c2ccc(Cl)cc2)N1C(=O)N1CCN(CC(=O)NCCOCCOCCOCC(=O)N[C@H](C(=O)N2C[C@H](O)C[C@H]2C(=O)NCc2ccc(-c3scnc3C)cc2)C(C)(C)C)CC1 (racemic) [YX-02-030]
sensitivity of non-cancerous cells [1]: resistant | reduction of mammosphere area [2]: 43.8% | IC50 [3]: 4.5 µM
